In patent publication US6528491B2, “Pyranoside derivatives” (Boehringer Ingelheim Pharma KG, priority 2000, dated 2003):

Target: LTB4 receptor (Homo sapiens, UniProt Q15722)
Test: receptor binding test
Text: The activity can be investigated pharmacologically and biochemically using tests as disclosed for example in WO 93/16036, pp. 15 to 17; reference is hereby made to the contents of this publication.

Chain of LTB4 receptor (Q15722 whole entry): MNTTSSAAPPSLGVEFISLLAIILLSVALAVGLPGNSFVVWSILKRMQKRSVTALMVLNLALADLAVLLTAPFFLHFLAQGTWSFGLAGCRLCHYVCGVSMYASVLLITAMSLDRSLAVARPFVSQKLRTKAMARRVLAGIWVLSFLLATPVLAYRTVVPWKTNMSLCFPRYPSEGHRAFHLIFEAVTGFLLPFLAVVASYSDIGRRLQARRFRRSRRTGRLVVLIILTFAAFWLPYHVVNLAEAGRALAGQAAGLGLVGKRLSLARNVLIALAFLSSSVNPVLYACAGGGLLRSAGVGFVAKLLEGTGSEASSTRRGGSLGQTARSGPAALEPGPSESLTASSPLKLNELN

CCCc1cc(-c2ccc(C(=N)N)cc2)ccc1OCCOc1cccc(O[C@@H]2O[C@H](C(=O)O)[C@@H](O)[C@H](O)[C@H]2O)c1 [Example 1, 3′-n-propyl-4′-[2-(3-hydroxyphenoxy)-ethoxy]-1,1′-biphenyl-4-carboximidamide-O-β-D-glucuronide]
Ki: 3.6 nM
